Assays:
Test in all cases: 3' UTR reporter interaction score (median-centred robust z-score of log2 firefly/Renilla activity); higher = less repression of the 3' UTR reporter
Details in all cases: HEK293T; 48 h
[1] = system: FBXW7
Outline: (§1)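 For the interaction score, the firefly/Renilla ratio was log-transformed, expressed as a robust z-score per plate using median and median absolute deviation, and median-centred per miRNA; a more negative score indicates interaction. These scores come from at least two independent screens, averaged. Each screen used HEK293T cells at 10,000/well in 96-well plates, co-transfected with DharmaFECT Duo carrying 100 ng luc2P 3' UTR reporter, 20 ng pRL-TK and 2.5 pmol miRNA mimic, with luciferase read at 48 h.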

[2] = system: ZEB2
Outline: as §1

[3] = system: MYB
Outline: as §1

[4] = system: NOTCH1
Outline: as §1

[5] = system: PHOX2B
Outline: as §1

[6] = system: TP53
Outline: as §1

[7] = system: HRAS
Outline: as §1

[8] = system: PHF6
Outline: as §1

[9] = system: RB1
Outline: as §1

[10] = system: MYCN
Outline: as §1

[11] = system: BRCA2
Outline: as §1

[12] = system: EZH2
Outline: as §1

[13] = system: MYT1L
Outline: as §1

[14] = system: MYC
Outline: as §1

Row | Sequence | 3' UTR reporter interaction score [1] | 3' UTR reporter interaction score [2] | 3' UTR reporter interaction score [3] | 3' UTR reporter interaction score [4] | 3' UTR reporter interaction score [5] | 3' UTR reporter interaction score [6] | 3' UTR reporter interaction score [7] | 3' UTR reporter interaction score [8] | 3' UTR reporter interaction score [9] | 3' UTR reporter interaction score [10] | 3' UTR reporter interaction score [11] | 3' UTR reporter interaction score [12] | 3' UTR reporter interaction score [13] | 3' UTR reporter interaction score [14]
1 | UGUGACAGAUUGAUAACUGAAA | -0.255 | 0.919 | 0.185 | 1.11 | 1.05 | 0.555 | -0.136 | -0.291 | 0.581 | 0.0393 | -1.43 | 0.213 | -1.77 | 0.173
2 | AACGCGCUUCCCUAUAGAGGG | 0.0883 | -0.982 | -0.83 | 0.382 | -0.021 | 1.12 | -1.1 | 0.0798 | 0.667 | -1.41 | 0.644 | 1.38 | -0.267 | -0.143
3 | UGGACGGAGAACUGAUAAGGGU | 0.0713 | 0.823 | 0.576 | -0.401 | -1.18 | 0.461 | -0.151 | 0.399 | -0.376 | -0.133 | 0.362 | -0.0404 | 0.408 | -0.199
4 | UCUCCCAACCCUUGUACCAGUG | -1.26 | 0.808 | -6.53 | -0.369 | -0.32 | -0.706 | 0.137 | 0.168 | -0.714 | 0.5 | 0.0345 | 0.195 | 0.779 | 0.62
5 | AAUCCUUUGUCCCUGGGUGAGA | 0.455 | 0.439 | -0.9 | 1.42 | -0.304 | -0.735 | 0.171 | -0.0711 | 0.615 | 0.972 | 0.853 | -0.257 | -2.16 | 0.916
6 | UAAGGUGCAUCUAGUGCAGAUA | 0.264 | -0.0823 | 0.537 | 0.283 | -0.0776 | 0.495 | -0.481 | -0.951 | -0.171 | -0.0167 | -0.222 | 0.286 | 0.136 | 0.199
7 | ACUUGUAUGCUAGCUCAGGUAG | 0.132 | 0.0953 | -0.993 | -2.55 | 0.171 | -0.611 | 0.169 | 0.16 | 0.468 | -0.194 | 0.171 | 0.301 | 0.252 | 0.231
8 | UGAGAUGAAGCACUGUAGCUCA | 0.851 | 0.313 | 0.448 | 0.298 | -0.89 | -0.632 | 0.321 | -0.896 | -0.192 | 0.577 | 1.09 | -0.134 | -0.193 | 0.59
9 | UGAUAUGUUUGAUAUAUUAGGU | 0.769 | -0.629 | -0.701 | 0.183 | 0.239 | 0.331 | -0.158 | -0.754 | -0.392 | 0.278 | -2.64 | -0.107 | 0.136 | 0.0447
10 | GCACAUUACACGGUCGACCUCU | 0.52 | 1.19 | 0.761 | -0.223 | -1.13 | -0.315 | -0.25 | 0.116 | -0.0189 | 0.192 | -0.107 | -0.1 | -0.0362 | -0.285

Reference: the supplement of paper PMC5844555
